For one data set, the system named is Apis mellifera. The following applies: acute; duration: 48 hours; dermal; mortality.
The next data set concerns Daphnia magna. The settings on record: chronic/long-term; duration: 21 days; reproduction.
In another data set the test system is Coturnix coturnix. The settings on record: reproduction developmental.
A further data set concerns Lepomis macrochirus. The settings on record: acute; duration: 96 hours; mortality.
The next data set deals with Mus musculus. The settings on record: acute; oral; mortality.
A further data set has as its system Oncorhynchus mykiss. The following applies: chronic/long-term; duration: 21 days; growth.
In the next data set the test system is Canidae. The settings on record: oral, Dog Other, clinical chemistry.
In another data set the test system is Tagia sp. The following applies: acute; duration: 14 days; mortality.
The test system of a further data set is Coturnix japonica. The settings on record: acute, oral, mortality.
The subject of the next data set is Typhlodromus pyri. In words: LR50; higher = less toxic. The settings on record: not reported; mortality.
A further data set has as its system Aphidius rhopalosiphi. In words: LR50; higher = less toxic. The following applies: not reported; mortality.

Structures are written as SMILES.

Regarding `COc1cc(OC)nc(NC(=O)NS(=O)(=O)N(C)S(C)(=O)=O)n1` [Amidosulfuron], the NOEC in the data set on Rattus norvegicus (chronic, mortality) came out at 400 mg/kg-day; in the data set on Rattus norvegicus (reproduction developmental, organ weight), 22.5 mg/kg-day; in the data set on Daphnia magna it was 1 mg/L; in the data set on Coturnix coturnix it was 1000 mg/kg-day; in the data set on Oncorhynchus mykiss, 6.41 mg/L. Further, the no-observed-adverse-effect level (NOAEL) (commonly the highest tested level that showed no adverse finding) in the data set on Rattus norvegicus (reproduction developmental, body weight) is 22.5 mg/kg-day; with Canidae (chronic, duration: 52 weeks), 144 mg/kg-day; in the data set with Canidae (subchronic, duration: 3 months), 144 mg/kg-day. The LD50 with Apis mellifera is above 100 µg/piece; in the data set with Mus musculus, at least 5000 mg/kg-day; in the data set with Coturnix japonica, above 2000 mg/kg-day. Besides, the LC50 in the data set on Lepomis macrochirus was above 100 µg/mL; in the data set on Tagia sp., above 1000 mg/kg; in the data set on Coturnix japonica (diet), above 1170 mg/kg-day. In addition, the LR50 with Typhlodromus pyri and in the data set with Aphidius rhopalosiphi was above 45 g/ha each time.

Values taken from EPA's ToxValDB 9.5 (doi:10.2903/j.efsa.2008.116r).
